≈ marks a conversion by molar mass, not a printed value. Calls of active or inactive are those of the source. No cut-off for these calls is given here.
Experiments:
[1] = molecular target: T1, Toll-like receptor 7 (Macaca fascicularis, UniProt B3Y652); assay: Agonist activity at TLR7 in cynomolgus monkey whole blood assessed as induction of TNFalpha production; type: tissue-based
T1 sequence (B3Y652 whole entry): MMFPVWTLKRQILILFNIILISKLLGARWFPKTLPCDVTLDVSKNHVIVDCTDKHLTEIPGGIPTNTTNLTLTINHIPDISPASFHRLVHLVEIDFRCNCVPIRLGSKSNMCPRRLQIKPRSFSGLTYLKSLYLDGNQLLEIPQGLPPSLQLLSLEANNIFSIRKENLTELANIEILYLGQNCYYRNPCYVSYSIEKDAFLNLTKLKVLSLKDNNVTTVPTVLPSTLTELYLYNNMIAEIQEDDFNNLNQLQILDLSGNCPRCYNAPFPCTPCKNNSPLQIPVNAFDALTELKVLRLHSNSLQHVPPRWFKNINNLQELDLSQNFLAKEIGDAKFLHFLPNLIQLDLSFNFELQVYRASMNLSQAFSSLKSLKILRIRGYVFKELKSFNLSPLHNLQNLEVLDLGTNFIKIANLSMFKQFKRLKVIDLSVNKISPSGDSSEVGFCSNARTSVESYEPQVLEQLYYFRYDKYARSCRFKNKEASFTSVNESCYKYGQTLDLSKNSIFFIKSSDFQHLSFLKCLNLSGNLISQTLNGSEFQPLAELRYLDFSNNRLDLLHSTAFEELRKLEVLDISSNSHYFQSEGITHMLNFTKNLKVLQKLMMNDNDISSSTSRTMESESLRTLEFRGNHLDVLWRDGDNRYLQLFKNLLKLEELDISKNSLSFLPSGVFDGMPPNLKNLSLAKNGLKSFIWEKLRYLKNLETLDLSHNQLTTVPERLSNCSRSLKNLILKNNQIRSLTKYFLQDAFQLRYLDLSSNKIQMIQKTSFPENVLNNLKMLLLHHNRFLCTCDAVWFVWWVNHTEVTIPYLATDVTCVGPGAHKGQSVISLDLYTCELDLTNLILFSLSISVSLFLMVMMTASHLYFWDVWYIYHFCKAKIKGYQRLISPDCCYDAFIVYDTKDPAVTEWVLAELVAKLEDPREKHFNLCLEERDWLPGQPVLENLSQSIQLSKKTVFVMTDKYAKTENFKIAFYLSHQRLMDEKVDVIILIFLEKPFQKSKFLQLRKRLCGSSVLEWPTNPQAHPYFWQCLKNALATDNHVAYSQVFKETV

[2] = tested on: Cynomolgus monkey; assay: Increase in TNF-alpha level in cynomolgus monkey serum at 3000 ng/kg, administered intranasally after 6 hrs; type: functional, organism-based; conditions: Macaca fascicularis
[3] = molecular target: T2, Toll-like receptor 7 (Macaca fascicularis) (UniProt B3Y652); assay: In vivo target occupancy at TLR7 in cynomolgus monkey assessed as fold increase in GBP1 mRNA expression in nasal scrape at 3 ng/kg administered intranasally incubated for 24 hrs by TaqMan analysis (reference value: 2.4); type: functional
T2 sequence (whole entry): T1 sequence (B3Y652 whole entry)

[4] = molecular target: T2, Toll-like receptor 7 (Macaca fascicularis); assay: In vivo target occupancy at TLR7 in cynomolgus monkey assessed as fold increase in CCL8 mRNA expression in nasal scrape at 30 ng/kg administered intranasally incubated for 24 hrs by TaqMan analysis (reference value: 1); type: functional
[5] = Solubility of the compound at pH-7; type: physicochemical
[6] = molecular target: T3, Toll-like receptor 9 (Homo sapiens) (UniProt Q9NR96); assay: Agonist activity at TLR9 (unknown origin) expressed in human HEK cells upto 50 uM by luciferase reporter assay; type: cell-based
T3 sequence (whole entry): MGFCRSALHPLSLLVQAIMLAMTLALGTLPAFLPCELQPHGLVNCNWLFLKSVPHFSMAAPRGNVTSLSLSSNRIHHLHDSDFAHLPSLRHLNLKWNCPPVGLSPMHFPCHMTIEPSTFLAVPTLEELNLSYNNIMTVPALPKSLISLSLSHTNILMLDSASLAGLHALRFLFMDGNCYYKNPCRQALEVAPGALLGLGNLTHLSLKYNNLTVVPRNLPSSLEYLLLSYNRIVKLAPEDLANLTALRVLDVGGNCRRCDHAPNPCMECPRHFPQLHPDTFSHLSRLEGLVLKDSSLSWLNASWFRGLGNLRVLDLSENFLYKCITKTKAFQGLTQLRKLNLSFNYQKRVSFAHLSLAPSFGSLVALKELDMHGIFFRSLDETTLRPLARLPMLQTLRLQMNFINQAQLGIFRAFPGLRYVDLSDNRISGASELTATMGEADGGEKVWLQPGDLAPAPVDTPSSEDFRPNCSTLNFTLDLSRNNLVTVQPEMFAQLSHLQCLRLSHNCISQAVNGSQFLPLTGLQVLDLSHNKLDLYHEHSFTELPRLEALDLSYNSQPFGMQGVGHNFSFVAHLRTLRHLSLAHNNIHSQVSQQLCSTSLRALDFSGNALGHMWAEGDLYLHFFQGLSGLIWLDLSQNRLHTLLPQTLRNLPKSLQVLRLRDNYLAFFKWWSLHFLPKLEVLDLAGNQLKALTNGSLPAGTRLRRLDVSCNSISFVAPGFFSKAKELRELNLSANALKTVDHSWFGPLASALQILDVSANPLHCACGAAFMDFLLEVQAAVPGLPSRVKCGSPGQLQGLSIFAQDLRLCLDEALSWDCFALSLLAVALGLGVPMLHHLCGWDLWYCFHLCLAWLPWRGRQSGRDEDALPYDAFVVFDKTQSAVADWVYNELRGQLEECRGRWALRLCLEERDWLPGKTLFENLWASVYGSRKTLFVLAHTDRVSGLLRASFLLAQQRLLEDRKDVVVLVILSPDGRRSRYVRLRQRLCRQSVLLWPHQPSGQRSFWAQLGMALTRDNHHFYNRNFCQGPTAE

[7] = tested on: PBMC; assay: Immunomodulatory activity in human PBMC assessed as IFNalpha production incubated for 6 days in presence of allergen timothy grass; type: functional, cell-based; conditions: time 6.0 day

## CCC[C@H](C)Oc1nc(N)c2[nH]c(=O)n(CCCCCN3CCCCC3)c2n1 [GSK-2245035]
[1]
  EC50: 15.8 µM
[2]
  Activity: inactive
[3]
  fold change (FC): 68.5
[4]
  fold change (FC): 19300
[5]
  solubility: 11 mg/mL (≈ 28.2 mM)
[6]
  Activity: inactive
[7]
  Activity: Active
